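Values below derive from 48-hour exposures of cells grown in 96-well plates, with endpoints linearly interpolated between the two concentrations bracketing the appropriate inhibition level. GI50 marks 50% less growth.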 Active and inactive are the calls of the source. Rule as the data show it: active = GI50 up to about 1.1 µM and inactive = higher.
Experiments:
Assay in all cases: NCI-60 cell line screen, 48 h
MCF7 = test system: MCF7
NCI-H226 = test system: NCI-H226
COLO 205 = test system: COLO 205
HT-29 = test system: HT-29
MDA-N = test system: MDA-N
SK-MEL-2 = test system: SK-MEL-2
UACC-62 = test system: UACC-62
NCI/ADR-RES = test system: NCI/ADR-RES
PC-3 = test system: PC-3
CAKI-1 = test system: CAKI-1
RXF 393 = test system: RXF 393
NCI-H522 = test system: NCI-H522
ACHN = test system: ACHN
M14 = test system: M14
OVCAR-3 = test system: OVCAR-3
OVCAR-8 = test system: OVCAR-8
EKVX = test system: EKVX
Malme-3M = test system: Malme-3M
SK-OV-3 = test system: SK-OV-3
CCRF-CEM = test system: CCRF-CEM

Measured: GI50

O=C(Nc1ccc2cc3ccccc3cc2c1)c1cc2c(cc1Cl)Sc1nccn1S2(=O)=O
inactive: MCF7 > 100 µM | NCI-H226 82.8 µM | COLO 205 87.3 µM | HT-29 18.9 µM | MDA-N 44.4 µM | SK-MEL-2 85.9 µM | UACC-62 64.9 µM | NCI/ADR-RES > 100 µM | PC-3 6.47 µM | CAKI-1 > 100 µM | RXF 393 45.6 µM | NCI-H522 33.7 µM | ACHN 67.1 µM | M14 42.7 µM | OVCAR-3 > 100 µM | OVCAR-8 26.4 µM | EKVX 35.6 µM | Malme-3M 19.5 µM | SK-OV-3 > 100 µM

Cc1ccc([C@@H]2[C@@H](C(=O)c3ccccn3)[C@H](c3ccc(C)cc3)C[C@](O)(c3ccccn3)[C@H]2C(=O)c2ccccn2)cc1
inactive: MCF7 4.86 µM | NCI-H226 4.1 µM | COLO 205 5.24 µM | HT-29 2.97 µM | MDA-N 3.69 µM | SK-MEL-2 3.46 µM | UACC-62 3.16 µM | NCI/ADR-RES 2.86 µM | PC-3 6.56 µM | CAKI-1 3.95 µM | RXF 393 3.15 µM | NCI-H522 32.8 µM | ACHN 2.51 µM | M14 1.31 µM | OVCAR-3 7.8 µM | OVCAR-8 3.33 µM | Malme-3M 8.79 µM
active: CCRF-CEM 0.851 µM | EKVX 0.728 µM

Nc1ccc(-c2nnc(-c3c(Cl)c(Cl)c(Cl)c(Cl)c3-c3nc4cc(C(=O)c5ccccc5)ccc4[nH]3)o2)cc1
inactive: MCF7 16 µM | NCI-H226 18 µM | COLO 205 18.6 µM | HT-29 20.5 µM | MDA-N 4.68 µM | SK-MEL-2 24.5 µM | NCI/ADR-RES 16 µM | PC-3 16.6 µM | CAKI-1 48.1 µM | CCRF-CEM 14.8 µM | RXF 393 10.9 µM | NCI-H522 13.5 µM | ACHN 41.7 µM | M14 16.6 µM | OVCAR-3 21 µM | OVCAR-8 43.8 µM | EKVX 28.6 µM | Malme-3M 22.8 µM | SK-OV-3 26.1 µM

COc1ccccc1Cc1ccc(C2C=CC3(CC(=O)C=C3C)C(=O)C2)o1 (centres undefined)
inactive: MCF7 17.1 µM | NCI-H226 25.6 µM | COLO 205 23.2 µM | HT-29 35.3 µM | MDA-N 18.5 µM | SK-MEL-2 14.7 µM | UACC-62 13.9 µM | NCI/ADR-RES 24.7 µM | PC-3 16.1 µM | CAKI-1 29.6 µM | RXF 393 17.4 µM | NCI-H522 16 µM | ACHN 33 µM | M14 32.1 µM | OVCAR-3 10.2 µM | OVCAR-8 17.1 µM | EKVX 34.8 µM | Malme-3M 17.9 µM

Cc1ccc(/C=C/c2n[nH]c(N/N=C/c3ccc4c(c3)OCO4)nc2=O)cc1
inactive: MCF7 23.3 µM | NCI-H226 26.9 µM | COLO 205 74.3 µM | HT-29 24 µM | MDA-N 25.3 µM | SK-MEL-2 30.8 µM | NCI/ADR-RES 9.23 µM | PC-3 21 µM | CAKI-1 33.3 µM | CCRF-CEM 18.7 µM | RXF 393 27.2 µM | NCI-H522 28.8 µM | ACHN 25.2 µM | M14 36.6 µM | OVCAR-3 19.6 µM | OVCAR-8 15.5 µM | EKVX 35.3 µM | Malme-3M 3.28 µM | SK-OV-3 30.5 µM

Cn1c(-c2ccc[se]2)ccc1-c1ccc(CO)[se]1
inactive: MDA-N 18 µM | SK-MEL-2 34.7 µM | NCI/ADR-RES 9.48 µM | PC-3 42.5 µM | CCRF-CEM 17.1 µM | NCI-H522 27.9 µM | ACHN 23.2 µM | M14 > 66.2 µM | OVCAR-8 33.1 µM | EKVX 32.7 µM | Malme-3M 10.2 µM | SK-OV-3 17.1 µM
active: MCF7 0.0139 µM | NCI-H226 0.302 µM | COLO 205 0.367 µM | UACC-62 0.045 µM | CAKI-1 < 0.01 µM | RXF 393 0.239 µM | OVCAR-3 0.0348 µM

CNC(=O)c1ccc(C(=O)NCCCCCN(O)C(=O)CCC(=O)NCCCCCN(O)C(=O)CCC(=O)NCCCCCN(O)C(C)=O)c(O)c1O
inactive: MCF7 48.2 µM | NCI-H226 > 100 µM | COLO 205 27.1 µM | HT-29 38.9 µM | MDA-N > 100 µM | SK-MEL-2 95.7 µM | UACC-62 36.1 µM | NCI/ADR-RES 41.6 µM | PC-3 86.7 µM | CAKI-1 55.3 µM | CCRF-CEM 5 µM | RXF 393 32.3 µM | NCI-H522 60.1 µM | ACHN 32.8 µM | M14 59.8 µM | OVCAR-3 8.57 µM | OVCAR-8 30.8 µM | Malme-3M 90.8 µM | SK-OV-3 45.4 µM

Cc1ccc([N+](=O)[O-])cc1S(=O)(=O)Nc1ccc(C2=NN(S(=O)(=O)c3cc([N+](=O)[O-])ccc3C)C(c3cccs3)C2)cc1 (centres undefined)
inactive: MCF7 10.7 µM | NCI-H226 52.7 µM | COLO 205 9.59 µM | HT-29 38.4 µM | MDA-N 33.7 µM | SK-MEL-2 25.3 µM | UACC-62 15.8 µM | NCI/ADR-RES 31.6 µM | PC-3 30 µM | CAKI-1 44.1 µM | RXF 393 56.5 µM | NCI-H522 26.1 µM | ACHN 32.4 µM | M14 36 µM | OVCAR-3 19.6 µM | OVCAR-8 50.2 µM | EKVX 29 µM | Malme-3M 47.9 µM | SK-OV-3 24.5 µM

FC(F)(Sc1ccccc1)c1nc2ccccc2o1
inactive: MCF7 35.2 µM | NCI-H226 46.9 µM | COLO 205 > 100 µM | HT-29 33.6 µM | MDA-N 82.6 µM | SK-MEL-2 67.8 µM | UACC-62 67.8 µM | NCI/ADR-RES 18.6 µM | PC-3 35.5 µM | CAKI-1 > 100 µM | CCRF-CEM 19.4 µM | RXF 393 28.5 µM | NCI-H522 34.6 µM | ACHN 47.4 µM | M14 68.9 µM | OVCAR-3 34.4 µM | OVCAR-8 83.4 µM | Malme-3M 51.1 µM | SK-OV-3 20.8 µM

O=C(/C=C/C=C/c1ccccc1)CCc1ccccc1
inactive: MCF7 > 100 µM | NCI-H226 > 100 µM | COLO 205 > 100 µM | HT-29 69.7 µM | MDA-N > 100 µM | SK-MEL-2 > 100 µM | UACC-62 > 100 µM | NCI/ADR-RES 68.5 µM | PC-3 83 µM | CAKI-1 > 100 µM | CCRF-CEM 35.2 µM | RXF 393 > 100 µM | NCI-H522 50.2 µM | M14 > 100 µM | OVCAR-3 > 100 µM | OVCAR-8 73.8 µM | EKVX > 100 µM | Malme-3M > 100 µM | SK-OV-3 > 100 µM

Source: ChEMBL document CHEMBL1201862, “PubChem BioAssay data set” (2004)
